In one series the test system is Plasma. Put plainly: AUC in rat plasma at 5 mg/kg, sc. Type of series: ADME, organism-based. On the set-up: dose 5 mg/kg, route subcutaneous. To be noted: in vivo.
The subject of a further series is Brain. Put plainly: AUC in rat brain at 5 mg/kg, sc. Type of series: ADME, organism-based. On the set-up: dose 5 mg/kg, route subcutaneous. To be noted: in vivo.
A short description of series [1]: Cytotoxicity against human THLE cells assessed as cell health and cell depletion. Type of series: cell-based.

On to `OC1(CN2CCC(COc3noc4cccc(O[C@@H]5CCOC5)c34)CC2)CCOCC1` [PF-04995274], for which the AUC was found to be 1760 ng·h/g in the series with Plasma and 1790 ng·h/g in the series on Brain. Also, the Activity in series [1] was found to be 300 µM.
